Assay results reported in US11878970B2, “Allosteric chromenone inhibitors of phosphoinositide 3-kinase (PI3K) for the treatment of disease” (Petra Pharma Corporation, priority 2021, dated 2024).
pIC50: −log10 of the molar value.

Assays:
[1] = biological target: T1, PI3K-α (PIK3CA) wild-type (WT), p110α/p85α complex (Homo sapiens, UniProt P42336); assay: PI3K-alpha kinase (PIK3CA) biochemical activity, ADP-Glo, wild-type; conditions: Soy PI lipid substrate
T1 construct: Recombinant, catalytically active human full length PIK3KA Wild-type and H1047R mutant; 6×His (N); purchased EMD Millipore Sigma 14-602M
Source text: (§1) PI3K-Alpha Kinase (PIK3CA) Activity, Wild-Type and H1047R Mutant and Determining IC50 Values for Inhibitors
(§2) Recombinant, catalytically active human full length PIK3KA Wild-type and H1047R mutant were purchased as 1:1 complex of N-terminal 6×his tagged p110α (catalytic) and untagged p85α (regulatory subunit) from EMD Millipore Sigma (cat. no. 14-602M and 14-792M, respectively). PIP2diC8 (Avanti Polar Lipids Inc., cat. no. 850185) or Soy PI (Avanti Polar Lipids Inc., cat. No. 840044P) was used as lipid substrate. PIP2diC8 or PI lyophilized powder was dissolved in milliQ water to a concentration of 1 mM just before use. 10 mM stock compounds in DMSO were serially diluted 1:3 to generate a 10-point curve and plated using an acoustic liquid handler system (Echo 550 series instrument, Labcyte). A 10× intermediate compound plate (200 uM starting compound concentration and 10% DMSO) was prepared before starting the reaction. A typical reaction mixture (50 uL) comprised 40 mM HEPES buffer, pH 7.4, 25 mM MgCl2, 0.01% v/v triton-X-100, 1% v/v DMSO, 20 mM NaCl, 1-5 nM WT or H1047R PI3K protein, 20 uM ATP, and 50 uM PIP2diC8 or Soy PI. 1% DMSO buffer alone without test compound was employed as MAX control (full activity in the absence of any inhibitor), and no enzyme control was used to determine the level of background Adenosine 5′-diphosphate (ADP) (MIN control). First, Wild-type (WT) and H1047R mutant protein in kinase buffer with all components except ATP were incubated with or without compound at 27° C. for 1 h. After the pre-incubation, the reaction was initiated by the addition of 20 uL of 50 uM ATP (20 uM final concentration). The reaction was allowed to proceed until about 10% conversion of ATP (2 uM ADP) at 27° C. After that time, 5 uL of reaction was mixed with 5 uL of ADP-Kinase Glo Reagent (ADP-Glo Kinase assay kit, Promega cat. no. V9102) supplemented with MgCl2 10 mM to stop the reaction and deplete the remaining ATP for 40 min at room temperature. Then, 10 uL of Kinase Detection Reagent (ADP-Glo Kinase assay kit, Promega cat. no. V9102) was added to simultaneously convert ADP to ATP and allow the newly synthesized ATP to be measured using a luciferase/luciferin reaction. After 30 min at room temperature the light generated was measured using a luminometer (EnVision plate reader, Perkin Elmer). Process data through Genedata-Screener tool. Relative IC50 values are determined using luminescence units by calculating percent inhibition with respect to on-plate “MIN” and “MAX” controls. Data was analyzed using a 4-parameter nonlinear logistic equation (four-parameter logistic concentration-response curve): Y=bot+[(top−bot)/1+(x/IC50)slope] where Y=% inhibition, X=concentration yielding y % inhibition, Bottom=minimum value of y attained by curve, Top=maximum value of y attained by curve and Slope=steepness of curve at IC50. % Inh=[(median Max−x/median Max−median Min)]·100 IC50: concentration of compound that reduces a given response (ligand binding, enzyme response) by 50%. IC50 relative: concentration giving half the compound's maximum response.

[2] = biological target: T2, PI3K-α (PIK3CA) H1047R mutant, p110α/p85α complex (Homo sapiens, UniProt P42336, H1047R); assay: PI3K-alpha kinase (PIK3CA) biochemical activity, ADP-Glo, H1047R mutant; conditions: Soy PI lipid substrate
T2 construct: Recombinant, catalytically active human full length PIK3KA Wild-type and H1047R mutant; 6×His (N); purchased EMD Millipore Sigma 14-792M
Source text: as §1, §2

T2 sequence (P42336 whole entry H1047R): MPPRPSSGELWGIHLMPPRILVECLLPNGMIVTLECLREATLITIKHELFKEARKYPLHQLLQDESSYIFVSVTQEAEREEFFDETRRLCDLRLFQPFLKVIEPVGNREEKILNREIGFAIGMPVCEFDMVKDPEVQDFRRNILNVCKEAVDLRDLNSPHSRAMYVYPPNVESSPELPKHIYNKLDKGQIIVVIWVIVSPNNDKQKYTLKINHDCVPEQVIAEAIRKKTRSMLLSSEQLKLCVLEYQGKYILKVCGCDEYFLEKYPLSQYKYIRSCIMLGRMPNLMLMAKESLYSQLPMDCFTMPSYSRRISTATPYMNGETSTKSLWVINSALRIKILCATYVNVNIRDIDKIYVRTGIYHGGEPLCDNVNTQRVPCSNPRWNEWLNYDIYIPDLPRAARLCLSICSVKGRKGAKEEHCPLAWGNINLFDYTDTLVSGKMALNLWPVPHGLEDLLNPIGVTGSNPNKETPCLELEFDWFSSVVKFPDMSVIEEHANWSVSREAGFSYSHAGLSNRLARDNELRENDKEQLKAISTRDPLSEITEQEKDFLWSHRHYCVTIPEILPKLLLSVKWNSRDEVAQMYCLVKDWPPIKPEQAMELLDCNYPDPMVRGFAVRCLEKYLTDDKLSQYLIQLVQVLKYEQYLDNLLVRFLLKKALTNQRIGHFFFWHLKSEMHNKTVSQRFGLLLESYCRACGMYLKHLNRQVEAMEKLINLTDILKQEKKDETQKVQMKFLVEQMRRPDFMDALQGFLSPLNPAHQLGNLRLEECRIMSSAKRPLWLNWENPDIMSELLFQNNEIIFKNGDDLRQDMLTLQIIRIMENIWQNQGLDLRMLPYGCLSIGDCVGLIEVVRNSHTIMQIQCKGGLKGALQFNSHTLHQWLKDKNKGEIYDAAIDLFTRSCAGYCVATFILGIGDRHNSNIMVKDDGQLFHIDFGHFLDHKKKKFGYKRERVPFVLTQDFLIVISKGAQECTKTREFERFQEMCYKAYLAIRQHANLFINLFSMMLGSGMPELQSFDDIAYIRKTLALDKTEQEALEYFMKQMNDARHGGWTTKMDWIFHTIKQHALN
T2 sequence (P27986 whole entry partner): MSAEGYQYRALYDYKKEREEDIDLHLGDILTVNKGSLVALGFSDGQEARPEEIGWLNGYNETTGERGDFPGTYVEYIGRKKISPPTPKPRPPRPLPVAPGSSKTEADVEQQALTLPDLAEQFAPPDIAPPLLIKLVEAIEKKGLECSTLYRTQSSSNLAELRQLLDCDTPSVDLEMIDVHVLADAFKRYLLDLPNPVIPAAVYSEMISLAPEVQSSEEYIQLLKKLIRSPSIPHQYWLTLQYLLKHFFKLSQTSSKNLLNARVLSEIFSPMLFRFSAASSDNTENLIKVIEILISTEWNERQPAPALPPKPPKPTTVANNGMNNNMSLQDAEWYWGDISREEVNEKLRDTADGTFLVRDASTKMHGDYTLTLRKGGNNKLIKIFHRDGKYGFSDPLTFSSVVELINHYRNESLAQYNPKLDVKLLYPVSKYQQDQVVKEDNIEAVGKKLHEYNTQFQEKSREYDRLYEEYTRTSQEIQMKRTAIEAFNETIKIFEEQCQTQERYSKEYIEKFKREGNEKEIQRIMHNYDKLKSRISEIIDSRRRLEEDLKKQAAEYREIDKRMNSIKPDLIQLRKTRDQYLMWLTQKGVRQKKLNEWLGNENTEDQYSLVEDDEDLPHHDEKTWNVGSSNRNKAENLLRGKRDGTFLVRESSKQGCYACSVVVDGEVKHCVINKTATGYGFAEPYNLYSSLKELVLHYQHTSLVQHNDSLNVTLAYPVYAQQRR

Structure (SMILES) | pIC50 [1] | pIC50 [2]
Cc1cc(C(C)Nc2ccccc2C(=O)O)c2oc(-c3ccc4nnc(C(C)C)n4c3)cc(=O)c2c1 (single isomer, unassigned) [Example 78, 2-[1-[2-(3-Isopropyl-[1,2,4]triazolo[4,3-a]pyridin-6-yl)-6-methyl-4-oxo-chromen-8-yl]ethylamino]benzoic acid] | < 5.00 | 5.30 to 6.00
Cc1cc(C(C)Nc2ccccc2C(=O)O)c2oc(-c3cc4ncccc4[nH]3)cc(=O)c2c1 (single isomer, unassigned) [Example 147, 2-[1-[6-Methyl-4-oxo-2-(1H-pyrrolo[3,2-b]pyridin-2-yl)chromen-8-yl]ethylamino]benzoic acid] | 5.30 to 6.00 | > 6.30
Cc1cc(C(C)Nc2ccccc2C(=O)O)c2oc(-c3ccc4nc(C)cn4c3)c(C#N)c(=O)c2c1 (single isomer, unassigned) [Example 118, 2-[1-[3-Cyano-6-methyl-2-(2-methylimidazo[1,2-a]pyridin-6-yl)-4-oxo-chromen-8-yl]ethylamino]benzoic acid] | 5.30 to 6.00 | > 6.30
Cc1cc(C(C)Nc2ccccc2C(=O)O)c2oc(-c3ccc4cc[nH]c4c3)cc(=O)c2c1 (single isomer, unassigned) [Example 21, 2-[1-[2-(1H-Indol-6-yl)-6-methyl-4-oxo-chromen-8-yl]ethylamino]benzoic acid] | 6.00 to 6.30 | > 6.30
Cc1cc(C(C)Nc2ccc(Cl)nc2C(=O)O)c2oc(-c3ccc4nc(C)cn4c3)cc(=O)c2c1 (single isomer, unassigned) [Example 179, 6-Chloro-3-[1-[6-methyl-2-(2-methylimidazo[1,2-a]pyridin-6-yl)-4-oxo-chromen-8-yl]ethylamino]pyridine-2-carboxylic acid] | 5.00 to 5.30 | 6.00 to 6.30
Cc1cc(C(C)Nc2ccccc2C(=O)O)c2oc(-c3c[nH]c4ccccc34)c(C)c(=O)c2c1 (single isomer, unassigned) [Example 154, 2-[1-[2-(1H-Indol-3-yl)-3,6-dimethyl-4-oxo-chromen-8-yl]ethylamino]benzoic acid] | 5.30 to 6.00 | > 6.30
Cc1cc(C(C)Nc2ccccc2C(=O)O)c2oc(-c3cccc4c3OCO4)cc(=O)c2c1 (single isomer, unassigned) [Example 45, 2-[1-[2-(1,3-Benzodioxol-4-yl)-6-methyl-4-oxo-chromen-8-yl]ethylamino]benzoic acid] | > 6.30 | > 6.30
Cc1cc(C(C)Nc2ccccc2C(=O)O)c2oc(-c3ccc4ccn(C)c4n3)cc(=O)c2c1 (single isomer, unassigned) [Example 159, 2-[1-[6-Methyl-2-(1-methylpyrrolo[2,3-b]pyridin-6-yl)-4-oxo-chromen-8-yl]ethylamino]benzoic acid] | 5.30 to 6.00 | > 6.30
Cc1cc(C(C)Nc2ccccc2C(=O)O)c2oc(-c3ccc4nn(C)cc4n3)c(C)c(=O)c2c1 (single isomer, unassigned) [Example 130, 2-[1-[3,6-Dimethyl-2-(2-methylpyrazolo[4,3-b]pyridin-5-yl)-4-oxo-chromen-8-yl]ethylamino]benzoic acid] | 6.00 to 6.30 | > 6.30
Cc1cc(C(C)Nc2ccccc2C(=O)O)c2oc(-c3ccc4cc(C)[nH]c4n3)cc(=O)c2c1 (single isomer, unassigned) [Example 20, 2-[1-[6-Methyl-2-(2-methyl-1H-pyrrolo[2,3-b]pyridin-6-yl)-4-oxo-chromen-8-yl]ethylamino]benzoic acid] | 5.30 to 6.00 | > 6.30
Cc1cc(C(C)Nc2ccccc2C(=O)O)c2oc(-c3cnn4ccccc34)cc(=O)c2c1 (single isomer, unassigned) [Example 29, 2-[1-(6-Methyl-4-oxo-2-pyrazolo[1,5-a]pyridin-3-yl-chromen-8-yl)ethylamino]benzoic acid] | 5.00 to 5.30 | > 6.30
COc1ccc2nc(-c3cc(=O)c4cc(C)cc(C(C)Nc5ccccc5C(=O)O)c4o3)cn2c1 (single isomer, unassigned) [Example 2, 2-[1-[2-(6-Methoxyimidazo[1,2-a]pyridin-2-yl)-6-methyl-4-oxo-chromen-8-yl]ethylamino]benzoic acid] | 5.30 to 6.00 | 6.00 to 6.30
Cc1cc(C(C)Nc2ccccc2C(=O)O)c2oc(-c3ccc4c(cnn4CC4COC4)c3)cc(=O)c2c1 (single isomer, unassigned) [Example 138, 2-[1-[6-Methyl-2-[1-(oxetan-3-ylmethyl)indazol-5-yl]-4-oxo-chromen-8-yl]ethylamino]benzoic acid] | < 5.00 | 6.00 to 6.30
Cc1cc(C(C)Nc2ccc(F)c(F)c2C(=O)O)c2oc(-c3ccc4nc(C)cn4n3)cc(=O)c2c1 (centres unmarked) [Example 94, 2,3-Difluoro-6-[1-[6-methyl-2-(2-methylimidazo[1,2-b]pyridazin-6-yl)-4-oxo-chromen-8-yl]ethylamino]benzoic acid] | < 5.00 | 5.30 to 6.00
Cc1cc(C(C)Nc2ccccc2C(=O)O)c2oc(-c3ccc4nn(C)cc4c3)cc(=O)c2c1 (centres unmarked) [Example 13, 2-[1-[6-Methyl-2-(2-methylindazol-5-yl)-4-oxo-chromen-8-yl]ethylamino]benzoic acid] | > 6.30 | > 6.30

Next, values leading:

pIC50 [1] | pIC50 [2] | Structure (SMILES)
5.00 to 5.30 | > 6.30 | Cc1cc(C(C)Nc2ccccc2C(=O)O)c2oc(-c3ccc4cn(C)nc4n3)cc(=O)c2c1 (single isomer, unassigned) [Example 135, 2-[1-[6-Methyl-2-(2-methylpyrazolo[3,4-b]pyridin-6-yl)-4-oxo-chromen-8-yl]ethylamino]benzoic acid]
5.00 to 5.30 | > 6.30 | Cc1cc(C(C)Nc2ccccc2C(=O)O)c2oc(-c3ccc4c(c3)ncn4C)cc(=O)c2c1 (single isomer, unassigned) [Example 166, 2-[1-[6-Methyl-2-(1-methylbenzimidazol-5-yl)-4-oxo-chromen-8-yl]ethylamino]benzoic acid]
5.30 to 6.00 | > 6.30 | Cc1cc(C(C)Nc2cccc(F)c2C(=O)O)c2oc(-c3ccc4nn(C)cc4c3)cc(=O)c2c1 (centres unmarked) [Example 103, 2-Fluoro-6-[1-[6-methyl-2-(2-methylindazol-5-yl)-4-oxo-chromen-8-yl]ethylamino]benzoic acid]
5.30 to 6.00 | > 6.30 | Cc1cc(C(C)Nc2ccccc2C(=O)O)c2oc(-c3ccc4nc(C)cn4n3)cc(=O)c2c1 (single isomer, unassigned) [Example 69, 2-[1-[6-Methyl-2-(2-methylimidazo[1,2-b]pyridazin-6-yl)-4-oxo-chromen-8-yl]ethylamino]benzoic acid]
6.00 to 6.30 | > 6.30 | Cc1cc([C@@H](C)Nc2ccc(C)nc2C(=O)O)c2oc(-c3ccc4nn(C)cc4c3)c(C)c(=O)c2c1 [Example 200, 3-[[(1R)-1-[3,6-Dimethyl-2-(2-methylindazol-5-yl)-4-oxo-chromen-8-yl]ethyl]amino]-6-methyl-pyridine-2-carboxylic acid]
5.30 to 6.00 | > 6.30 | Cc1cc(C(C)Nc2ccccc2C(=O)O)c2oc(-c3ccc4c(c3)CN(C)C4=O)cc(=O)c2c1 (single isomer, unassigned) [Example 31, 2-[1-[6-Methyl-2-(2-methyl-1-oxo-isoindolin-5-yl)-4-oxo-chromen-8-yl]ethylamino]benzoic acid]
< 5.00 | < 5.00 | Cc1cn2cc(-c3oc4c(C(C)Nc5ccccc5C(=O)O)cc(F)cc4c(=O)c3C)ccc2n1 (single isomer, unassigned) [Example 56, 2-[1-[6-Fluoro-3-methyl-2-(2-methylimidazo[1,2-a]pyridin-6-yl)-4-oxo-chromen-8-yl]ethylamino]benzoic acid]
